Data as given in PubChem BioAssay AID1259407 (Chemical Carcinogenesis Research Information System (CCRIS), 2018).
Calls of active or inactive are those of the source. No rule for the calls is given here.

Tested on: CCRIS mutagenicity, Ames/micronucleus/aberration tests
Test: CCRIS mutagenicity studies
[1] = Test System: AMES SALMONELLA TYPHIMURIUM, Strain/Indicator: TA98, Metabolic Activation: NONE, Method: PREINCUBATION
[2] = Test System: AMES SALMONELLA TYPHIMURIUM, Strain/Indicator: TA100, Metabolic Activation: NONE, Method: PREINCUBATION
[3] = Test System: AMES SALMONELLA TYPHIMURIUM, Strain/Indicator: TA1535, Metabolic Activation: NONE, Method: PREINCUBATION

Measured: mutagenic call

CC(=O)c1cc2c(cc1C)C(C)(C)C(C)C2(C)C (stereo not given)
inactive: Test System: AMES SALMONELLA TYPHIMURIUM, Strain/Indicator: TA97, Metabolic Activation: NONE, Method: STANDARD PLATE inactive; negative | Test System: AMES SALMONELLA TYPHIMURIUM, Strain/Indicator: TA97, Metabolic Activation: RAT LIVER S-9, AROCLOR 1254, Method: STANDARD PLATE inactive; negative | Test System: AMES SALMONELLA TYPHIMURIUM, Strain/Indicator: TA98, Metabolic Activation: NONE, Method: STANDARD PLATE inactive; negative | Test System: AMES SALMONELLA TYPHIMURIUM, Strain/Indicator: TA98, Metabolic Activation: RAT LIVER S-9, AROCLOR 1254, Method: STANDARD PLATE inactive; negative | Test System: AMES SALMONELLA TYPHIMURIUM, Strain/Indicator: TA100, Metabolic Activation: NONE, Method: STANDARD PLATE inactive; negative | Test System: AMES SALMONELLA TYPHIMURIUM, Strain/Indicator: TA100, Metabolic Activation: RAT LIVER S-9, AROCLOR 1254, Method: STANDARD PLATE inactive; negative | Test System: AMES SALMONELLA TYPHIMURIUM, Strain/Indicator: TA102, Metabolic Activation: NONE, Method: STANDARD PLATE inactive; negative | Test System: AMES SALMONELLA TYPHIMURIUM, Strain/Indicator: TA102, Metabolic Activation: RAT LIVER S-9, AROCLOR 1254, Method: STANDARD PLATE inactive; negative

COc1cc(-c2ccc(N/N=C3\C=C(S(=O)(=O)O)c4ccccc4C3=O)c(OC)c2)ccc1N=Nc1cc(S(=O)(=O)O)c2ccccc2c1N
inactive: Test System: AMES SALMONELLA TYPHIMURIUM, Strain/Indicator: TA97, Metabolic Activation: HAMSTER, LIVER, S-9, AROCLOR 1254 (10 OR 30%), Method: PREINCUBATION inactive; negative | Test System: AMES SALMONELLA TYPHIMURIUM, Strain/Indicator: TA97, Metabolic Activation: NONE, Method: PREINCUBATION inactive; negative | Test System: AMES SALMONELLA TYPHIMURIUM, Strain/Indicator: TA97, Metabolic Activation: RAT, LIVER, S-9, AROCLOR 1254 (10 OR 30%), Method: PREINCUBATION inactive; negative | Test System: AMES SALMONELLA TYPHIMURIUM, Strain/Indicator: TA98, Metabolic Activation: HAMSTER, LIVER, S-9, AROCLOR 1254 (10 OR 30%), Method: PREINCUBATION inactive; negative | [1] inactive; negative | Test System: AMES SALMONELLA TYPHIMURIUM, Strain/Indicator: TA98, Metabolic Activation: RAT, LIVER, S-9, AROCLOR 1254 (10 OR 30%), Method: PREINCUBATION inactive; negative | Test System: AMES SALMONELLA TYPHIMURIUM, Strain/Indicator: TA100, Metabolic Activation: HAMSTER, LIVER, S-9, AROCLOR 1254 (10 OR 30%), Method: PREINCUBATION inactive; negative | [2] inactive; negative | Test System: AMES SALMONELLA TYPHIMURIUM, Strain/Indicator: TA100, Metabolic Activation: RAT, LIVER, S-9, AROCLOR 1254 (10 OR 30%), Method: PREINCUBATION inactive; negative | Test System: AMES SALMONELLA TYPHIMURIUM, Strain/Indicator: TA1535, Metabolic Activation: HAMSTER, LIVER, S-9, AROCLOR 1254 (10 OR 30%), Method: PREINCUBATION inactive; negative | [3] inactive; negative | Test System: AMES SALMONELLA TYPHIMURIUM, Strain/Indicator: TA1535, Metabolic Activation: RAT, LIVER, S-9, AROCLOR 1254 (10 OR 30%), Method: PREINCUBATION inactive; negative | Test System: AMES SALMONELLA TYPHIMURIUM, Strain/Indicator: TA1538, Metabolic Activation: HAMSTER, LIVER, S-9, Method: STANDARD PLATE inactive; negative | Test System: AMES SALMONELLA TYPHIMURIUM, Strain/Indicator: TA1538, Metabolic Activation: RAT, LIVER, S-9, AROCLOR 1254, Method: STANDARD PLATE inactive; negative

Oc1ccc2c(c1)sc1ccccc12
active: Test System: CHINESE HAMSTER OVARY, Strain/Indicator: CHO-K1-BH4 (HGPRT)/6-THIOGUANINE, Metabolic Activation: RAT, LIVER, S-9, AROCLOR (4%) active; positive

Cc1nc(N)nc(N)n1
inactive: [1] inactive; negative | Test System: AMES SALMONELLA TYPHIMURIUM, Strain/Indicator: TA98, Metabolic Activation: RAT LIVER S-9, PHENOBARBITAL AND BETA-NAPHTHOFLAVONE, Method: PREINCUBATION inactive; negative | [2] inactive; negative | Test System: AMES SALMONELLA TYPHIMURIUM, Strain/Indicator: TA100, Metabolic Activation: RAT LIVER S-9, PHENOBARBITAL AND BETA-NAPHTHOFLAVONE, Method: PREINCUBATION inactive; negative | [3] inactive; negative | Test System: AMES SALMONELLA TYPHIMURIUM, Strain/Indicator: TA1535, Metabolic Activation: RAT LIVER S-9, PHENOBARBITAL AND BETA-NAPHTHOFLAVONE, Method: PREINCUBATION inactive; negative | Test System: AMES SALMONELLA TYPHIMURIUM, Strain/Indicator: TA1537, Metabolic Activation: NONE, Method: PREINCUBATION inactive; negative | Test System: AMES SALMONELLA TYPHIMURIUM, Strain/Indicator: TA1537, Metabolic Activation: RAT LIVER S-9, PHENOBARBITAL AND BETA-NAPHTHOFLAVONE, Method: PREINCUBATION inactive; negative | Test System: AMES SALMONELLA TYPHIMURIUM, Strain/Indicator: TA1538, Metabolic Activation: NONE, Method: PREINCUBATION inactive; negative | Test System: AMES SALMONELLA TYPHIMURIUM, Strain/Indicator: TA1538, Metabolic Activation: RAT LIVER S-9, PHENOBARBITAL AND BETA-NAPHTHOFLAVONE, Method: PREINCUBATION inactive; negative | Test System: E.COLI, Strain/Indicator: WP2UVRA, Metabolic Activation: NONE, Method: PREINCUBATION inactive; negative | Test System: E.COLI, Strain/Indicator: WP2UVRA, Metabolic Activation: RAT LIVER S-9, PHENOBARBITAL AND BETA-NAPHTHOFLAVONE, Method: PREINCUBATION inactive; negative
